Experimental data published in US20240210412A1, “SULFONYL-TRIAZOLE COMPOUNDS USEFUL AS LIGANDS AND INHIBITORS OF PROSTAGLANDIN REDUCTASE 2” (University of Virginia Patent Foundation, priority 2021, published 2024).

Tests used:
Test in all cases: SILAC LC-MS ABPP
Format in all cases: cell-based
Details in all cases: 25 μM 2 h, live DM93 cells
Q9UMX5 = target: T1, Q9UMX5 (Homo sapiens, UniProt Q9UMX5)
T1 construct: endogenous in cells; host or cells: DM93 cells (SILAC)
Procedure, shortened: (§1)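 DM93 SILAC cells, ligand 25 μM vs DMSO, 2 h; HHS-475 100 μM, 2 h; CuAAC desthiobiotin tag; 1:1 pool; trypsin; avidin enrichment; LC-MS/MS site quantification.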

P12081 = target: T2, P12081 (Homo sapiens, UniProt P12081)
T2 construct: endogenous in cells; host or cells: DM93 cells (SILAC)
T2 sequence (P12081 whole entry): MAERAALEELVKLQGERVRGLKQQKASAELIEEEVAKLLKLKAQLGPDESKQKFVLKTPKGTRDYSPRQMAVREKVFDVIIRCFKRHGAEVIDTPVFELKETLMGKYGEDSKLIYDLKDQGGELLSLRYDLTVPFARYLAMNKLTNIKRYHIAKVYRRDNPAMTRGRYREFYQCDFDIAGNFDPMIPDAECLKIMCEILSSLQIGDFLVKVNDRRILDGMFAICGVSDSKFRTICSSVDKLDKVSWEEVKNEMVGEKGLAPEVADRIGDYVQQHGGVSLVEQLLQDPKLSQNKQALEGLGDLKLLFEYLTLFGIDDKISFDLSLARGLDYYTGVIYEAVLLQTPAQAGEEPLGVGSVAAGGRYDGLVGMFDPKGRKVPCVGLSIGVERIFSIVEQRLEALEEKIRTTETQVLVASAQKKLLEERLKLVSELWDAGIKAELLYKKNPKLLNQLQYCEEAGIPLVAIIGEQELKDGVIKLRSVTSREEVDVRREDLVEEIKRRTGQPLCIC
Procedure, shortened: as §1

Q9HAU0 = target: T3, Q9HAU0 (Homo sapiens, UniProt Q9HAU0)
T3 construct: endogenous in cells; host or cells: DM93 cells (SILAC), treated live; soluble proteome analysed
Procedure, shortened: as §1

O14777 = target: T4, O14777 (Homo sapiens, UniProt O14777)
T4 construct: endogenous in cells; host or cells: DM93
Procedure, shortened: as §1

P17066 = target: T5, P17066 (Homo sapiens, UniProt P17066)
T5 construct: Probe-modified proteins from the soluble fraction were conjugated to a desthiobiotin-azide tag; endogenous in cells; host or cells: DM93 (SILAC)
T5 sequence (P17066 whole entry): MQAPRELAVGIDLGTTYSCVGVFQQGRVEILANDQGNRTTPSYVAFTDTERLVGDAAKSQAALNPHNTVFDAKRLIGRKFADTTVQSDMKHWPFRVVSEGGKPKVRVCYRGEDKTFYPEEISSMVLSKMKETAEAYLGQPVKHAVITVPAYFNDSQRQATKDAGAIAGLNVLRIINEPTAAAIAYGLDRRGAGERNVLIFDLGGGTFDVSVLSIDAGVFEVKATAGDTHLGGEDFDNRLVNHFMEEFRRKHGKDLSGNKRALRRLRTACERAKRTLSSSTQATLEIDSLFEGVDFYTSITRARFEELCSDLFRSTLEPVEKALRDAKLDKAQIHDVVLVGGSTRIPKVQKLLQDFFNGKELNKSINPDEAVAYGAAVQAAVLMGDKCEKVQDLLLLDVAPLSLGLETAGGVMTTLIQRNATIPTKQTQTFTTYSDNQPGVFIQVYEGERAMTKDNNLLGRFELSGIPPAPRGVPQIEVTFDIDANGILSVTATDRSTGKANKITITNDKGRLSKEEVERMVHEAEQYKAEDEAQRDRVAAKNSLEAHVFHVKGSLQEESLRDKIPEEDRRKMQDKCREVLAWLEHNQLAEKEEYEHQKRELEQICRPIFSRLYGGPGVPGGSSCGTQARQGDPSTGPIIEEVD
Procedure, shortened: as §1

Q14247 = target: T6, Q14247 (Homo sapiens, UniProt Q14247)
T6 construct: performing SuTEx compound screening directly in cells; endogenous in cells; host or cells: DM93 cells (SILAC), soluble fraction
Procedure, shortened: as §1

P50502 = target: T7, P50502 (Homo sapiens, UniProt P50502)
T7 construct: endogenous in cells; host or cells: DM93 cells (SILAC)
T7 sequence (P50502 whole entry): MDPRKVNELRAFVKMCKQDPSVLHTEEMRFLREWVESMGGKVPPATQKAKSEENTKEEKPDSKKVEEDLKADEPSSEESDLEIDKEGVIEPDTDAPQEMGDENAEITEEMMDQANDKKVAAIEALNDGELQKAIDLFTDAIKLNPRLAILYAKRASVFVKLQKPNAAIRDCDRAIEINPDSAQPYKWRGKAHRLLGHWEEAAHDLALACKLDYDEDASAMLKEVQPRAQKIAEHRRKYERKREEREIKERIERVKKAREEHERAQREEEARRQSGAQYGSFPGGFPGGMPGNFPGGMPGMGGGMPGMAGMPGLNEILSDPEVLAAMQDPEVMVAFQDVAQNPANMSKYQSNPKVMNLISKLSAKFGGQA
Procedure, shortened: as §1

Q6ZSZ5 = target: T8, Q6ZSZ5 (Homo sapiens, UniProt Q6ZSZ5)
T8 construct: endogenous in cells; host or cells: DM93 cells (SILAC), live-cell treatment
Procedure, shortened: as §1

Q99797 = target: T9, Q99797 (Homo sapiens, UniProt Q99797)
T9 construct: endogenous in cells; host or cells: DM93 cells (SILAC), treated live; soluble proteome analysed
Procedure, shortened: as §1

O43852 = target: T10, O43852 (Homo sapiens, UniProt O43852)
T10 construct: endogenous in cells; host or cells: DM93
T10 sequence (O43852 20-315): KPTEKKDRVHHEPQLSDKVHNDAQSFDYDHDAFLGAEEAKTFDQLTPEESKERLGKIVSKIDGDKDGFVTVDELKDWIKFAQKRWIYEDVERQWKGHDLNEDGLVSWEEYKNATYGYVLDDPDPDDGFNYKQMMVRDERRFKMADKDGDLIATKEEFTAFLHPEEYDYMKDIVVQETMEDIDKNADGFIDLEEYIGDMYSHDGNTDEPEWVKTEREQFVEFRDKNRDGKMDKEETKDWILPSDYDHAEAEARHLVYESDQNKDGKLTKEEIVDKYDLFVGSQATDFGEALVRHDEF
Procedure, shortened: as §1

Q14914 = target: T11, Q14914 (Homo sapiens, UniProt Q14914)
T11 construct: performing SuTEx compound screening directly in cells; endogenous in cells; host or cells: DM93 cells (SILAC), soluble fraction
T11 sequence (Q14914 whole entry): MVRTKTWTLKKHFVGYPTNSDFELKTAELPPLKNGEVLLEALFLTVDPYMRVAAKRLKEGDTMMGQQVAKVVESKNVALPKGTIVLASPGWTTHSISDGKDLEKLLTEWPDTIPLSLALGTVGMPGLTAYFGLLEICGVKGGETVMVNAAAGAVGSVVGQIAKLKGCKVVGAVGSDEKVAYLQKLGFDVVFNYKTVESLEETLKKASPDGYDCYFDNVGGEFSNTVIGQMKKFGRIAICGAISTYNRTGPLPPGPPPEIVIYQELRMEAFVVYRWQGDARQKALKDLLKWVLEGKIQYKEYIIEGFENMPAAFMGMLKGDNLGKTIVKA
Procedure, shortened: as §1

P55084 = target: T12, P55084 (Homo sapiens, UniProt P55084)
T12 construct: endogenous in cells; host or cells: DM93 cells (SILAC)
T12 sequence (P55084 34-474): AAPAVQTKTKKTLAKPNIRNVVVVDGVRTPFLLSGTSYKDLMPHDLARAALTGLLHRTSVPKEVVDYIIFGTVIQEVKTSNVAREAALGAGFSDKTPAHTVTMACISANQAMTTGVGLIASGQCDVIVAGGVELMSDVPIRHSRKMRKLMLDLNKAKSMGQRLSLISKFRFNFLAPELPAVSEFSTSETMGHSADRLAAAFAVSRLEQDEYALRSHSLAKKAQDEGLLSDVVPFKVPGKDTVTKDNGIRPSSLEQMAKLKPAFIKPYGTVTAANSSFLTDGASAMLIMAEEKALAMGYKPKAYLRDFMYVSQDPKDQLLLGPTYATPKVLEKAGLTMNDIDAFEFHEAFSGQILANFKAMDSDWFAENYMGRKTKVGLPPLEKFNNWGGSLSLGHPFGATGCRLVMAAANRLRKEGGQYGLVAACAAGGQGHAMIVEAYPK
T12 sequence (P40939 37-763 partner): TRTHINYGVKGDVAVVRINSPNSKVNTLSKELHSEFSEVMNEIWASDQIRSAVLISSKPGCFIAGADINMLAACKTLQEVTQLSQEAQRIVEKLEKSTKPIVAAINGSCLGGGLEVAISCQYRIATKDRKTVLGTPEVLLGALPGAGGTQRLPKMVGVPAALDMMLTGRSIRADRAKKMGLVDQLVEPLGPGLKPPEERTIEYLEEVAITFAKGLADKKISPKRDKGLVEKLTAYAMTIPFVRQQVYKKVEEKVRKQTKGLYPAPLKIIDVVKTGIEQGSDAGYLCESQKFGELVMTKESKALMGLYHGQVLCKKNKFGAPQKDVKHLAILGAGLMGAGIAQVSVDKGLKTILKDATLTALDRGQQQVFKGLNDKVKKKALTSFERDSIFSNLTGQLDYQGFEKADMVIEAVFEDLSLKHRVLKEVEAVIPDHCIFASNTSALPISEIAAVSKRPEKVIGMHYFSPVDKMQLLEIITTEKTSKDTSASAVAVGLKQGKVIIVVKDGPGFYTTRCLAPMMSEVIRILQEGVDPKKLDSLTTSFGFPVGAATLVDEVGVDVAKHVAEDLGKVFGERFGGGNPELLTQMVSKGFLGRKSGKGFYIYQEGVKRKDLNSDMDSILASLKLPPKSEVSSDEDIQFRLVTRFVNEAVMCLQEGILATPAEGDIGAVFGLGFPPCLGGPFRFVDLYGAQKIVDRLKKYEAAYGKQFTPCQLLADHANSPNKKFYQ
Procedure, shortened: as §1

P14550 = target: T13, P14550 (Homo sapiens, UniProt P14550)
T13 construct: endogenous in cells; host or cells: DM93 cells (SILAC)
T13 sequence (P14550 whole entry): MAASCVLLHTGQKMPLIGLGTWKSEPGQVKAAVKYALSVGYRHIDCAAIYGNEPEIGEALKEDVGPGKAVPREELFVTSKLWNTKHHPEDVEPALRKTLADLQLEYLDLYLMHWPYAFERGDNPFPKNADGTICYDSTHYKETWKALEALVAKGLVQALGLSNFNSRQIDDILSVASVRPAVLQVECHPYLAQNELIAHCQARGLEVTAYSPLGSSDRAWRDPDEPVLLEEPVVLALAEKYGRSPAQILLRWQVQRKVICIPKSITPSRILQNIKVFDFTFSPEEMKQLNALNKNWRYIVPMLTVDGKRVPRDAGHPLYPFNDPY
Procedure, shortened: as §1

Q14980 = target: T14, Q14980 (Homo sapiens, UniProt Q14980)
T14 construct: performing SuTEx compound screening directly in cells; endogenous in cells; host or cells: DM93 cells (SILAC), soluble fraction
Procedure, shortened: as §1

Q6N069 = target: T15, Q6N069 (Homo sapiens, UniProt Q6N069)
T15 construct: performing SuTEx compound screening directly in cells; endogenous in cells; host or cells: DM93 cells (SILAC), soluble fraction
T15 sequence (Q6N069 whole entry): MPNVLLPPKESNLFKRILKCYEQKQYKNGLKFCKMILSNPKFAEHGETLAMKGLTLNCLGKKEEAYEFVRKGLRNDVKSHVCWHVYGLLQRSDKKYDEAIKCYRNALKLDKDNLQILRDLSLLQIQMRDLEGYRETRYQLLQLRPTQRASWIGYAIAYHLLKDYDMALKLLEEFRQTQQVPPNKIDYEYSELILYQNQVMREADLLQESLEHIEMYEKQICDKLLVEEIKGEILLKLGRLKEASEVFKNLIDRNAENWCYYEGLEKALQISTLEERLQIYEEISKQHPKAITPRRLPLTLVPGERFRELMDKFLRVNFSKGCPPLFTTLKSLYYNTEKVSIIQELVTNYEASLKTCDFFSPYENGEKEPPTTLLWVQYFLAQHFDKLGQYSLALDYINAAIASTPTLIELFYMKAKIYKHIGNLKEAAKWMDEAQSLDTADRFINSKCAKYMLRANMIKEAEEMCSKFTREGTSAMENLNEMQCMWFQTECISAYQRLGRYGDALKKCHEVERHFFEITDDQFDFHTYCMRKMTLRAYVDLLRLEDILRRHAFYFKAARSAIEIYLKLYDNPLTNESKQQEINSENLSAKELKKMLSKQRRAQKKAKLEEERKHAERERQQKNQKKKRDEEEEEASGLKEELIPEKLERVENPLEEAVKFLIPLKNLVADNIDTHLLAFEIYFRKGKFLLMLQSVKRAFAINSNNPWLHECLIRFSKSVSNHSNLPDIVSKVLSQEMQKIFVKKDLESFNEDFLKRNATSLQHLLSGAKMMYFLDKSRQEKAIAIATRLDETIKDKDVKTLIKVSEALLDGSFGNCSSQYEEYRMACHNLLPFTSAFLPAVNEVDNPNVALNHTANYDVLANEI
Procedure, shortened: as §1

P62277 = target: T16, P62277 (Homo sapiens, UniProt P62277)
T16 construct: performing SuTEx compound screening directly in cells; endogenous in cells; host or cells: DM93 cells (SILAC)
Procedure, shortened: as §1

Q9BXS6 = target: T17, Q9BXS6 (Homo sapiens, UniProt Q9BXS6)
T17 construct: endogenous in cells; host or cells: DM93 cells (SILAC), treated live; soluble proteome analysed
T17 sequence (Q9BXS6 whole entry): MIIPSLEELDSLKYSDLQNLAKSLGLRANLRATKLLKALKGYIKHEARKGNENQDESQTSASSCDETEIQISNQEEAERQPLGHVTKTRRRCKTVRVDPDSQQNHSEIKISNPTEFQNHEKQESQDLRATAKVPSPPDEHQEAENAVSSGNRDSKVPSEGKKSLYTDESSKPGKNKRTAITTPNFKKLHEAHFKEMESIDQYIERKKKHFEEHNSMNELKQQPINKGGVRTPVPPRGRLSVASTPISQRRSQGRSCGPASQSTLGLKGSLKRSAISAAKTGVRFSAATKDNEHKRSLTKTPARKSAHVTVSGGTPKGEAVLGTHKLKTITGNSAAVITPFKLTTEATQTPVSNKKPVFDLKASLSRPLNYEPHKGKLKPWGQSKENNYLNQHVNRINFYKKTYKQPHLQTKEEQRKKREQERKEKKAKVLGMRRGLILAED
Procedure, shortened: as §1

Q01082 = target: T18, Q01082 (Homo sapiens, UniProt Q01082)
T18 construct: performing SuTEx compound screening directly in cells; endogenous in cells; host or cells: DM93 cells (SILAC)
Procedure, shortened: as §1

O=C(c1ccc(S(=O)(=O)n2cncn2)cc1)N1CCC(c2ccccc2)CC1 [HHS-0701, (4-((1H-1,2,4-triazol-1-yl)sulfonyl)phenyl)(4-phenylpiperidin-1-yl)methanone]
liganded tyrosine site 82 (Q9UMX5): HHS0701.Y (tyrosine sites that showed >80% reductions (SR >5) in probe labeling in cells treated with compounds (liganded sites))
liganded tyrosine site 168 (P12081): HHS0701.Y (tyrosine sites that showed >80% reductions (SR >5) in probe labeling in cells treated with compounds (liganded sites))
liganded tyrosine site 172 (P12081): HHS0701.Y (tyrosine sites that showed >80% reductions (SR >5) in probe labeling in cells treated with compounds (liganded sites))
liganded tyrosine site 553 (Q9HAU0): HHS0701.Y (tyrosine sites that showed >80% reductions (SR >5) in probe labeling in cells treated with compounds (liganded sites))
liganded tyrosine site 310 (O14777): HHS0701.Y (tyrosine sites that showed >80% reductions (SR >5) in probe labeling in cells treated with compounds (liganded sites))

O=C(NC1CCCCC1)c1ccc(S(=O)(=O)n2cncn2)cc1 [HHS-0301, 4-((1H-1,2,4-triazol-1-yl)sulfonyl)-N-cyclohexylbenzamide]
liganded tyrosine site 373 (P17066): HHS0301.Y (tyrosine sites that showed >80% reductions (SR >5) in probe labeling in cells treated with compounds (liganded sites))
liganded tyrosine site 154 (Q14247): HHS0301.Y|HHS0401.Y (tyrosine sites that showed >80% reductions (SR >5) in probe labeling in cells treated with compounds (liganded sites))

O=C(NCC1CC1)c1ccc(S(=O)(=O)n2cncn2)cc1 [HHS-0201, 4-((1H-1,2,4-triazol-1-yl)sulfonyl)-N-(cyclopropylmethyl)benzamide]
liganded tyrosine site 213 (P50502): HHS0201.Y (tyrosine sites that showed >80% reductions (SR >5) in probe labeling in cells treated with compounds (liganded sites))
liganded tyrosine site 1012 (Q6ZSZ5): HHS0201.Y (tyrosine sites that showed >80% reductions (SR >5) in probe labeling in cells treated with compounds (liganded sites))
liganded tyrosine site 273 (Q99797): HHS0201.Y (tyrosine sites that showed >80% reductions (SR >5) in probe labeling in cells treated with compounds (liganded sites))
liganded tyrosine site 294 (O43852): HHS0201.Y (tyrosine sites that showed >80% reductions (SR >5) in probe labeling in cells treated with compounds (liganded sites))

O=C(NCc1ccccc1)c1ccc(S(=O)(=O)n2cncn2)cc1 [HHS-0401, 4-((1H-1,2,4-triazol-1-yl)sulfonyl)-N-benzylbenzamide]
liganded tyrosine site 262 (Q14914): HHS0401.Y (tyrosine sites that showed >80% reductions (SR >5) in probe labeling in cells treated with compounds (liganded sites))
liganded tyrosine site 402 (P55084): HHS0401.Y (tyrosine sites that showed >80% reductions (SR >5) in probe labeling in cells treated with compounds (liganded sites))
liganded tyrosine site 135 (P14550): HHS0401.Y (tyrosine sites that showed >80% reductions (SR >5) in probe labeling in cells treated with compounds (liganded sites))
liganded tyrosine site 1836 (Q14980): HHS0401.Y (tyrosine sites that showed >80% reductions (SR >5) in probe labeling in cells treated with compounds (liganded sites))

O=C(NC1CC1)c1ccc(S(=O)(=O)n2cncn2)cc1 [HHS-0101, 4-((1H-1,2,4-triazol-1-yl)sulfonyl)-N-cyclopropylbenzamide]
liganded tyrosine site 86 (Q6N069): HHS0101.Y|HHS0701.Y (tyrosine sites that showed >80% reductions (SR >5) in probe labeling in cells treated with compounds (liganded sites))
liganded tyrosine site 38 (P62277): HHS0101.Y (tyrosine sites that showed >80% reductions (SR >5) in probe labeling in cells treated with compounds (liganded sites))
liganded tyrosine site 165 (Q9BXS6): HHS0101.Y (tyrosine sites that showed >80% reductions (SR >5) in probe labeling in cells treated with compounds (liganded sites))
liganded tyrosine site 777 (Q01082): HHS0101.Y|HHS0201.Y|HHS0401.Y (tyrosine sites that showed >80% reductions (SR >5) in probe labeling in cells treated with compounds (liganded sites))
